Measurements published in US12246004B2, “Therapeutic treatment of microsatellite unstable cancers” (THE BROAD INSTITUTE, INC., priority 2018, dated 2025).

Assays:
MSS cells = assay: Telomere PNA-FISH of metaphase spreads; format: cell-based; conditions: two MSS cell lines; 96 h after induction of shRNA
Procedure: (§1) In brief, 3×10^6 cells were plated in 10-cm dishes in the absence of doxycycline. For cells treated with doxycycline, 0.2 μg ml^−1 of doxycycline was added and refreshed every 48 h. Then, 96 h after adding doxycycline, cells were treated with 10 μg ml^−1 of colcemid for 3 h and then detached with trypsin. Half of the cell pellet was saved for immunoblot analysis. The other half of the cell pellet was treated with a hypotonic solution (60 mM KCl) and fixed with a 3:1 ratio of methanol:acidic acid. Metaphases were spread onto a slide and fixed with 3% formalin. The PNA-FISH probe ((CCCTAA)3 PNA probe (PNA Bio)) was applied to the slides and denatured at 85° C. for 3 min. The slides were washed with washing solution I (70% formamide, 0.1% Tween-20, 0.1% BSA in 10 mM Tris buffer, pH 7.5) twice and three times with washing solution II (150 mM NaCl, 0.1% Tween-20, 0.1% BSA in 50 mM Tris buffer, pH 7.5). Cy5-ATTCGTTGGAAACGGGA (SEQ ID NO: 28) was used to label centromeres. Images were captured with a Nikon Eclipse 80i microscope and processed with the NISElements BR software. In total, 30 to 60 metaphases were analyzed for cells of the indicated conditions. Two-tailed Student's 1-tests were performed (FIG. 4E). These experiments were performed twice.

MSI cells = assay: Telomere PNA-FISH of metaphase spreads; format: cell-based; conditions: two MSI cell lines; 96 h after induction of shRNA
Procedure: as §1

KM12 xenografts = assay: KM12 xenograft growth with doxycycline-inducible shRNA; format: in vivo, mice; conditions: doxycycline induction of shRNA (FIG. 2D)
Procedure: Studies were approved by the Institutional Animal Care and Use Committee (IACUC) of the Broad Institute under animal protocol 0194-01-18. IACUC guidelines on the ethical use and care of animals were followed. For growth curves, 10^6 KM12 cells expressing WRN shRNA 1 or WRN-C911 shRNA 1 were inoculated subcutaneously into right hind flank of approximately 8-week-old female SCID Hairless Outbred (SHO) mice obtained from Charles River Laboratories. Tumors were measured twice weekly with calipers and the tumor volumes were calculated using the formula π/6×(width^2×length). When primary tumors reached around 100 mm^3, the mice were randomized onto Control Teklad Global 18% Protein Rodent Diet or Teklad Global 18% Protein Rodent Diet containing 625 mg kg^−1 doxycycline hyclate. Mice remained on their respective diets throughout the remainder of the study. Animal body weights were recorded twice weekly during the course of the study for body condition scoring. For the growth curves, n=5 (4 from days 15-18), 5, 4, 4 for WRN shRNA 1 without doxycycline, WRN shRNA 1 with doxycycline, WRN-C911 shRNA 1 without doxycycline, WRN-C911 shRNA 1 with doxycycline treatment, respectively. One mouse treated with KM12 cells with WRN shRNA 1 without doxycycline was euthanized before day 15 because of tumor ulceration. No experiments exceeded the maximal tumor volumes of 2,000 mm^3 set forth by the IACUC. […]

KM12 cells = assay: Luciferase competitive growth assay, rescue by ectopic WRN cDNA; format: cell-based
Procedure: The catalytically active version, exonuclease-dead (E84A), helicase-dead (K577M) and dually exonuclease and helicase-dead (E84A/K577M) versions of WRN cDNA were a gift from R. J. Monnat (Addgene, plasmids 46038, 46036, 46035 and 46037, respectively). […] The WRN sequence was cloned into a modified lentiviral expression vector, pLX_TRC209, under an EF1A promoter and modified to contain a neomycin-selectable marker. Sanger sequencing of the vectors and genomic DNA after integration were performed to confirm sequence identity. Lentivirus was produced as described below and transduced into dually Cas9-Firefly-luciferase-expressing KM12 cells to create stable ectopic WRN cDNA-expressing cell lines.
Dual Cas9-Firefly-luciferase- and Renilla-luciferase-expressing cells were generated by transduction of Firefly-luciferase cDNA and Renilla-luciferase cDNA, respectively, in a pLX_TRC313 lentiviral expression vector containing a hygromycin-resistance gene. After hygromycin selection, these two versions of the cell line were co-seeded in a 96 well plate at the following densities per well for each version: ES2 2×10^3 cells per well, OVK18, 3×10^3 cells per well; SW620, 4×10^3 cells per well; KM12, 4×10^3 cells per well. The following day, cells were transduced with lentivirus expressing the indicated sgRNA and a puromycin-resistance gene in six replicates. The day following viral transduction, the medium was changed to include puromycin. Cells were split and assayed with the Dual-Glo Luciferase Assay System (Promega) per the manufacturer's recommendations every 3-4 days. Luminescence was determined using the Perkin Elmer EnVision 2105. Values are presented as the ratio of Firefly to Renilla-luciferase luminescence signal per condition and normalized to the mean of the corresponding negative control sgRNAs for each cell line. Experiments in FIG. 2C and FIG. 7B were performed three times. Two-tailed Student's t-tests were performed when comparing single sgRNAs (FIG. 2C). Two-way ANOVAs were performed when multiple WRN sgRNAs were compared to negative controls (FIG. 7B).

WRN = assay: Immunoblot of WRN levels after sgRNA transduction; format: cell-based; conditions: KM12 cells expressing WRN cDNA (FIG. 2B)
Procedure: For immunoblotting, cells were lysed in RIPA buffer (Sigma-Aldrich) supplemented with complete Protease Inhibitor Cocktail (Roche, 11697498001) and a Halt Phosphatase Inhibitor Cocktail (Thermo Fischer Scientific, 78428). For etoposide and hydroxyurea treatment (FIG. 4A), cells were treated with 10 μM etoposide and 1 mM hydroxyurea, respectively, 6 h before collection. Lysates were fractionated in 4-12% Bis-Tris gels (Invitrogen), which was then transferred to PVDF membranes (Immobilon-FL PVDF Millipore, IPFL00010) and blocked for an hour with Odyssey Blocking Buffer (PBS) (LI-COR Biosciences, 927-40000). Types of primary antibodies and the dilutions used for immunoblotting were as follows: anti-phospho-CHK2 (T68) (R&D Systems, AF1626, 1:400); anti-total CHK2 (Cell Signaling Technology, 3440, 1:1,000); anti-[…] (Cell Signaling Technology, 9718, 1:1,000); anti-GAPDH (Cell Signaling Technology, 5174, 1:1,000); anti-MLH1 (Cell Signaling Technology, 3515, 1:1,000); anti-MSH3 (BD Biosciences, 611390, 1:400); anti-WRN (Novus Biologicals, nb100-472, 1:1,000). The following secondary antibodies were used: goat anti-rabbit IRDye 800CW (LI-COR, 926-32211, 1:5,000), goat anti-rabbit IRDye 680LT (LI-COR, 926-68021), and goat anti-mouse IRDye 800CW (LI-COR, 926-32210). […]

WRN shRNA 1: shRNA targeting WRN chosen from project DRIVE, CAGCACTGCCAATGGTTCCAA; SEQ ID NO: 5
Chromosomal integrity (DSBs, fragmentation) in metaphase spreads (MSS cells): but not in MSS cells
Chromosomal integrity (DSBs, fragmentation) in metaphase spreads (MSI cells): induced DSBs and fragmentation throughout chromosomes
Tumor growth (KM12 xenografts): significantly impaired tumor growth

WRN EIJ sgRNA: sgRNA targeting a WRN exon-intron junction, target sequence AGCACGTACATAAGCATCAG (SEQ ID NO: 4) (only the sgRNA target sequence is given, scaffold and chemistry not given here, further chemistry not given here)
Rescue of viability by WRN cDNA (KM12 cells; Cas9-expressing KM12 cells, 9 days after sgRNA transduction (FIG. 2C)): rescued
Rescue of viability by exonuclease-dead (E84A) WRN cDNA (KM12 cells; KM12 cells (FIGS. 2B and 2C)): did not attenuate rescue
Rescue of viability by helicase-dead (K577M) WRN cDNA (KM12 cells; KM12 cells (FIGS. 2B and 2C)): prevented rescue
Silencing of endogenous versus exogenous WRN (immunoblot) (WRN): silencing endogenous WRN, but not exogenous WRN cDNA
